Measurements as given in ChEMBL document CHEMBL1201862, “PubChem BioAssay data set” (2004).
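Method: 48-hour compound exposure of cells in 96-well plates, five concentrations, linear interpolation of endpoints. GI50 = concentration required for 50% inhibition of growth.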 Calls of active or inactive are those of the source. Rule as the data show it: active = GI50 up to about 1.1 µM and inactive = higher.

How the values were obtained:
Assay in all cases: DTP human tumour cell line panel, 48 h
SK-MEL-5 = tested on: SK-MEL-5
NCI-H226 = tested on: NCI-H226
CAKI-1 = tested on: CAKI-1
SK-MEL-28 = tested on: SK-MEL-28
SF-539 = tested on: SF-539
HOP-92 = tested on: HOP-92
SK-MEL-2 = tested on: SK-MEL-2
Malme-3M = tested on: Malme-3M
RXF 393 = tested on: RXF 393
HCC 2998 = tested on: HCC 2998
MOLT-4 = tested on: MOLT-4
MDA-N = tested on: MDA-N
SNB-19 = tested on: SNB-19
NCI-H23 = tested on: NCI-H23
OVCAR-3 = tested on: OVCAR-3
T47D = tested on: T47D
786-0 = tested on: 786-0
HCT-116 = tested on: HCT-116
BT-549 = tested on: BT-549
A549 = tested on: A549

Row | SMILES | GI50 (SK-MEL-5) | GI50 (NCI-H226) | GI50 (CAKI-1) | GI50 (SK-MEL-28) | GI50 (SF-539) | GI50 (HOP-92) | GI50 (SK-MEL-2) | GI50 (Malme-3M) | GI50 (RXF 393) | GI50 (HCC 2998) | GI50 (MOLT-4) | GI50 (MDA-N) | GI50 (SNB-19) | GI50 (NCI-H23) | GI50 (OVCAR-3) | GI50 (T47D) | GI50 (786-0) | GI50 (HCT-116) | GI50 (BT-549) | GI50 (A549)
1 | O=C(O)C(SC1=NC(=O)C2(NN1)c1ccccc1-c1ccccc12)SC1=NC(=O)C2(NN1)c1ccccc1-c1ccccc12 | > 10 µM (inactive) | > 10 µM (inactive) | > 10 µM (inactive) | > 10 µM (inactive) | > 10 µM (inactive) | > 10 µM (inactive) | > 10 µM (inactive) | > 10 µM (inactive) | > 10 µM (inactive) | > 10 µM (inactive) | 4.09 µM (inactive) | > 10 µM (inactive) | > 10 µM (inactive) | > 10 µM (inactive) | > 10 µM (inactive) | 6.89 µM (inactive) | > 10 µM (inactive) | > 10 µM (inactive) | > 10 µM (inactive) | > 10 µM (inactive)
2 | CCOC(=O)Oc1ccc2c(c1)c(=O)c1c(NCCCN(CC)CC)ccc3nnn2c31 | 10.2 µM (inactive) | 7.18 µM (inactive) | 0.53 µM (active) | 18.6 µM (inactive) | 5.62 µM (inactive) | 6.76 µM (inactive) | 16.2 µM (inactive) | 13.4 µM (inactive) | 1.81 µM (inactive) | 1.43 µM (inactive) | 0.745 µM (active) | 1.19 µM (inactive) | 5.2 µM (inactive) | 13.3 µM (inactive) | 5.5 µM (inactive) | 16.8 µM (inactive) | 1.59 µM (inactive) | 1.37 µM (inactive) | 17.5 µM (inactive) | 1.64 µM (inactive)
3 | O=C1C(/N=N/c2ccc(-c3nc4ccccc4o3)cc2)NC(=S)N1c1ccccc1 (stereo not given) | 49.1 µM (inactive) | > 100 µM (inactive) | 90.8 µM (inactive) | > 100 µM (inactive) | > 100 µM (inactive) | 59.6 µM (inactive) | > 100 µM (inactive) | > 100 µM (inactive) | 83.8 µM (inactive) | > 100 µM (inactive) | 34.7 µM (inactive) | 32.8 µM (inactive) | > 100 µM (inactive) | > 100 µM (inactive) | 23.6 µM (inactive) | 22.9 µM (inactive) | > 100 µM (inactive) | > 100 µM (inactive) | > 100 µM (inactive) | > 100 µM (inactive)
4 | CCOC(=O)c1cccc(/N=N/c2nc[nH]c2/C=C/C(=O)OC)c1 | 7.36 µM (inactive) | 64.4 µM (inactive) | 4.97 µM (inactive) | 18.1 µM (inactive) | 7.14 µM (inactive) | 45.1 µM (inactive) | 23.7 µM (inactive) | 8.71 µM (inactive) | 16.4 µM (inactive) | 11 µM (inactive) | 3.01 µM (inactive) | 28.4 µM (inactive) | 30.5 µM (inactive) | 36.3 µM (inactive) | 3.15 µM (inactive) | 9.95 µM (inactive) | 7.36 µM (inactive) | 4.17 µM (inactive) | 42.6 µM (inactive) | 39.5 µM (inactive)
5 | C(=C(c1ccc(OC2CCCCO2)cc1)c1ccc(OC2CCCCO2)cc1)c1ccccc1 (stereo not given) | 0.444 µM (active) | 1.21 µM (inactive) | 0.637 µM (active) | 1.04 µM (active) | 1.53 µM (inactive) | 0.524 µM (active) | 1.4 µM (inactive) | 0.863 µM (active) | 1.03 µM (active) | 0.723 µM (active) | 0.392 µM (active) | 0.634 µM (active) | 1.26 µM (inactive) | 0.546 µM (active) | 0.577 µM (active) | 0.526 µM (active) | 0.519 µM (active) | 0.412 µM (active) | 0.543 µM (active) | 0.522 µM (active)
6 | O=C1C=C(NCCOCCO)C(=O)c2c(O)ccc(O)c21 | 13.2 µM (inactive) | > 100 µM (inactive) | 43.3 µM (inactive) | 69 µM (inactive) | 24 µM (inactive) | 24.3 µM (inactive) | 20.1 µM (inactive) | 11.9 µM (inactive) | 33.3 µM (inactive) | 17.5 µM (inactive) | 26.1 µM (inactive) | 17.3 µM (inactive) | 32.4 µM (inactive) | 23.4 µM (inactive) | 23.6 µM (inactive) | 23.8 µM (inactive) | 37.4 µM (inactive) | 22.5 µM (inactive) | > 100 µM (inactive) | 28.1 µM (inactive)
7 | COc1cc2ccccc2oc1=O | > 100 µM (inactive) | > 100 µM (inactive) | 99.3 µM (inactive) | 84.5 µM (inactive) | > 100 µM (inactive) | 40 µM (inactive) | 23.3 µM (inactive) | 99.1 µM (inactive) | 0.33 µM (active) | 78.2 µM (inactive) | 67.3 µM (inactive) | > 100 µM (inactive) | > 100 µM (inactive) | 94.2 µM (inactive) | 74.5 µM (inactive) | 1.85 µM (inactive) | > 100 µM (inactive) | > 100 µM (inactive) | 19.8 µM (inactive) | > 100 µM (inactive)
